Reference: patent US20160367623A1, “AGONISTS OF GUANYLATE CYCLASE USEFUL FOR THE TREATMENT OF GASTROINTESTINAL DISORDERS, INFLAMMATION, CANCER AND OTHER DISORDERS” (priority 2015, published 2016)
Bridge positions count the residues as written; N and C are the ends. Ends that are not written are not given here.

Test system: patients with chronic idiopathic constipation (CIC)
Experiment: Second phase 3 CIC trial: change from baseline in CSBMs/week
Format: in vivo, human
[1] = Post-Treatment Week 13, 3 mg, ITT Population, MRA
[2] = Post-Treatment Week 13, 3 mg, ITT Population-Excluding Duplicate Patients, MRA
[3] = Post-Treatment Week 13, 6 mg, ITT Population, MRA
[4] = Post-Treatment Week 13, 6 mg, ITT Population-Excluding Duplicate Patients, MRA
[5] = Post-Treatment Week 14, 3 mg, ITT Population, MRA
[6] = Post-Treatment Week 14, 3 mg, ITT Population-Excluding Duplicate Patients, MRA
[7] = Post-Treatment Week 14, 6 mg, ITT Population, MRA
[8] = Post-Treatment Week 14, 6 mg, ITT Population-Excluding Duplicate Patients, MRA
[9] = Week 1, 3 mg, ITT Population, MRA
[10] = Week 1, 3 mg, ITT Population-Excluding Duplicate Patients, MRA
[11] = Week 1, 6 mg, ITT Population, MRA
[12] = Week 1, 6 mg, ITT Population-Excluding Duplicate Patients, MRA
[13] = Week 2, 3 mg, ITT Population, MRA
[14] = Week 2, 3 mg, ITT Population-Excluding Duplicate Patients, MRA
[15] = Week 2, 6 mg, ITT Population, MRA
[16] = Week 2, 6 mg, ITT Population-Excluding Duplicate Patients, MRA
[17] = Week 3, 3 mg, ITT Population, MRA
[18] = Week 3, 3 mg, ITT Population-Excluding Duplicate Patients, MRA
[19] = Week 3, 6 mg, ITT Population, MRA

Which results are given for “Asn^1-Asp^2-Glu^3-Cys^4-Glu^5-Leu^6-Cys^7-Val^8-Asn^9-Val^10-Ala^11-Cys^12-Thr^13-Gly^14-Cys^15-Leu^16 (NDECELCVNVACTGCL; disulfide 4-12, 7-15) [Plecanatide, uroguanylin analogue, guanylate cyclase-C agonist; (C4:C12, C7:C15) bicycle peptide]”?
Change from Baseline in CSBMs, LS Mean (SE) (6 mg, overall average estimate across the 12-week treatment period, All Randomized (includes Duplicate Patients)): 2.14 (0.129) CSBMs/week; Change from Baseline in CSBMs, Mean (SD) (Active Combined, Post-Treatment Week 13, All Randomized (includes Duplicate Patients)): 1.73 (2.552) CSBMs/week; Change from Baseline in CSBMs, Mean (SD) (Active Combined, Post-Treatment Week 14, All Randomized (includes Duplicate Patients)): 1.69 (2.591) CSBMs/week; Change from Baseline in CSBMs, Mean (SD) (Active Combined, Week 1, All Randomized (includes Duplicate Patients)): 1.73 (2.803) CSBMs/week; Change from Baseline in CSBMs, Mean (SD) (Active Combined, Week 2, All Randomized (includes Duplicate Patients)): 1.83 (3.037) CSBMs/week; Change from Baseline in CSBMs, Mean (SD) (Active Combined, Week 3, All Randomized (includes Duplicate Patients)): 1.89 (3.005) CSBMs/week; Change from Baseline in CSBMs, Difference from Placebo [1]: 0.43 CSBMs/week; Change from Baseline in CSBMs, LS Mean (SE) [1]: 1.94 (0.134) CSBMs/week; Change from Baseline in CSBMs, Mean (SD) [1]: 1.88 (2.733) CSBMs/week; Change from Baseline in CSBMs, Difference from Placebo [2]: 0.46 CSBMs/week; Change from Baseline in CSBMs, LS Mean (SE) [2]: 1.96 (0.135) CSBMs/week; Change from Baseline in CSBMs, Mean (SD) [2]: 1.90 (2.743) CSBMs/week; Change from Baseline in CSBMs, Difference from Placebo [3]: 0.20 CSBMs/week; Change from Baseline in CSBMs, LS Mean (SE) [3]: 1.70 (0.134) CSBMs/week; Change from Baseline in CSBMs, Mean (SD) [3]: 1.64 (2.393) CSBMs/week; Change from Baseline in CSBMs, Difference from Placebo [4]: 0.18 CSBMs/week; Change from Baseline in CSBMs, LS Mean (SE) [4]: 1.69 (0.133) CSBMs/week; Change from Baseline in CSBMs, Mean (SD) [4]: 1.62 (2.339) CSBMs/week; Change from Baseline in CSBMs, Mean (SD) (Post-Treatment Week 13, Active Combined, ITT Population-Excluding Duplicate Patients, MRA): 1.76 (2.547) CSBMs/week; Change from Baseline in CSBMs, Mean (SD) (Post-Treatment Week 13, Active Combined, ITT Population, MRA): 1.76 (2.567) CSBMs/week; Change from Baseline in CSBMs, Difference from Placebo [5]: 0.43 CSBMs/week; Change from Baseline in CSBMs, LS Mean (SE) [5]: 1.82 (0.136) CSBMs/week; Change from Baseline in CSBMs, Mean (SD) [5]: 1.78 (2.620) CSBMs/week; Change from Baseline in CSBMs, Difference from Placebo [6]: 0.43 CSBMs/week; Change from Baseline in CSBMs, LS Mean (SE) [6]: 1.83 (0.137) CSBMs/week; Change from Baseline in CSBMs, Mean (SD) [6]: 1.78 (2.628) CSBMs/week; Change from Baseline in CSBMs, Difference from Placebo [7]: 0.34 CSBMs/week; Change from Baseline in CSBMs, LS Mean (SE) [7]: 1.73 (0.137) CSBMs/week; Change from Baseline in CSBMs, Mean (SD) [7]: 1.67 (2.616) CSBMs/week; Change from Baseline in CSBMs, Difference from Placebo [8]: 0.31 CSBMs/week; Change from Baseline in CSBMs, LS Mean (SE) [8]: 1.71 (0.136) CSBMs/week; Change from Baseline in CSBMs, Mean (SD) [8]: 1.64 (2.536) CSBMs/week; Change from Baseline in CSBMs, Mean (SD) (Post-Treatment Week 14, Active Combined, ITT Population-Excluding Duplicate Patients, MRA): 1.71 (2.582) CSBMs/week; Change from Baseline in CSBMs, Mean (SD) (Post-Treatment Week 14, Active Combined, ITT Population, MRA): 1.72 (2.616) CSBMs/week; Change from Baseline in CSBMs, Difference from Placebo [9]: 0.88 CSBMs/week; Change from Baseline in CSBMs, LS Mean (SE) [9]: 1.72 (0.153) CSBMs/week; Change from Baseline in CSBMs, Mean (SD) [9]: 1.75 (2.732) CSBMs/week; Change from Baseline in CSBMs, Difference from Placebo [10]: 0.88 CSBMs/week; Change from Baseline in CSBMs, LS Mean (SE) [10]: 1.75 (0.155) CSBMs/week; Change from Baseline in CSBMs, Mean (SD) [10]: 1.78 (2.752) CSBMs/week; Change from Baseline in CSBMs, Difference from Placebo [11]: 0.88 CSBMs/week; Change from Baseline in CSBMs, LS Mean (SE) [11]: 1.71 (0.151) CSBMs/week; Change from Baseline in CSBMs, Mean (SD) [11]: 1.72 (2.897) CSBMs/week; Change from Baseline in CSBMs, Difference from Placebo [12]: 0.87 CSBMs/week; Change from Baseline in CSBMs, LS Mean (SE) [12]: 1.74 (0.153) CSBMs/week; Change from Baseline in CSBMs, Mean (SD) [12]: 1.74 (2.911) CSBMs/week; Change from Baseline in CSBMs, Mean (SD) (Week 1, Active Combined, ITT Population-Excluding Duplicate Patients, MRA): 1.76 (2.832) CSBMs/week; Change from Baseline in CSBMs, Mean (SD) (Week 1, Active Combined, ITT Population, MRA): 1.74 (2.815) CSBMs/week; Change from Baseline in CSBMs, Difference from Placebo [13]: 0.86 CSBMs/week; Change from Baseline in CSBMs, LS Mean (SE) [13]: 1.82 (0.153) CSBMs/week; Change from Baseline in CSBMs, Mean (SD) [13]: 1.81 (2.963) CSBMs/week; Change from Baseline in CSBMs, Difference from Placebo [14]: 0.85 CSBMs/week; Change from Baseline in CSBMs, LS Mean (SE) [14]: 1.84 (0.155) CSBMs/week; Change from Baseline in CSBMs, Mean (SD) [14]: 1.82 (2.986) CSBMs/week; Change from Baseline in CSBMs, Difference from Placebo [15]: 0.85 CSBMs/week; Change from Baseline in CSBMs, LS Mean (SE) [15]: 1.81 (0.152) CSBMs/week; Change from Baseline in CSBMs, Mean (SD) [15]: 1.84 (3.158) CSBMs/week; Change from Baseline in CSBMs, Difference from Placebo [16]: 0.85 CSBMs/week; Change from Baseline in CSBMs, LS Mean (SE) [16]: 1.84 (0.154) CSBMs/week; Change from Baseline in CSBMs, Mean (SD) [16]: 1.85 (3.171) CSBMs/week; Change from Baseline in CSBMs, Mean (SD) (Week 2, Active Combined, ITT Population-Excluding Duplicate Patients, MRA): 1.84 (3.079) CSBMs/week; Change from Baseline in CSBMs, Mean (SD) (Week 2, Active Combined, ITT Population, MRA): 1.82 (3.061) CSBMs/week; Change from Baseline in CSBMs, Difference from Placebo [17]: 0.74 CSBMs/week; Change from Baseline in CSBMs, LS Mean (SE) [17]: 1.94 (0.153) CSBMs/week; Change from Baseline in CSBMs, Mean (SD) [17]: 1.94 (3.117) CSBMs/week; Change from Baseline in CSBMs, Difference from Placebo [18]: 0.74 CSBMs/week; Change from Baseline in CSBMs, LS Mean (SE) [18]: 1.96 (0.156) CSBMs/week; Change from Baseline in CSBMs, Mean (SD) [18]: 1.95 (3.143) CSBMs/week; Change from Baseline in CSBMs, Difference from Placebo [19]: 0.61 CSBMs/week; Change from Baseline in CSBMs, LS Mean (SE) [19]: 1.81 (0.152) CSBMs/week
